Entries after “also recorded” stand apart in the source; their conditions may differ.
What was measured:
Type in all cases: in vivo
[1] = test system: cotton aphid (CA) Aphis gossypii; assay: Test 1: cotton aphid counts on plants grown from soaked seeds
Protocol: (§1) Seeds were soaked beginning on T=0 days in solutions of either
(§2) Compound A, imidacloprid, or plain water containing 0.125% (v:v) Tween 20 (check treatment). Compounds were formulated as technical material in water containing 0.125% Tween 20. […] Solution concentrations were 50, 5, 0.5, 0.05 and 0.005 ppm. No evaporation was possible and a significant excess of solution was present to ensure abundant availability of either Compound A or imidacloprid from each solution. On average 20 ml of solution was used to soak groups of seed needed for the seed soaking phase of this test. Seeds were removed from these solutions on T=2 days and planted. Seeds exposed to each unique treatment were germinated as a groups in dedicated shallow plastic cups filled with white sand and containing plain water. Planting of these seeds occurred on T=2 days and the seeds were grown in these shallow cups until T=10 days. Initially 70 ml of water was added to each shallow cup at planting and additional water was added to the cups as needed to keep the sand moist. On T=10 days germinating seedlings were transplanted from the shallow germination cups to individual containers (plastic cups−6 reps per treatment) filled with white sand. Thirty ml of water was used to water the plants following transplanting. After the initial treatment water was added to cups as needed to maintain moisture for plant development. On T=14 days each plant was infested with cotton aphid (CA) Aphis gossypii by transferring a small piece of infested foliage to each test plant. The number of aphids transferred to each plant was uniform based on visual estimation. Plants were rated on T=17 days and T=18 days by counting the number of CA and taking the weight of the each plant. The plant part weighed was the aerial portion of the plant cut off at the surface of the sand. Data were analyzed using analysis of variance with an LSD means separation test (Minitab).
Raw data were not homogeneous and so replicate aphid counts were transformed using a square root count+0.5 transformation.

[2] = test system: plant grown from soaked seeds; assay: Test 1: plant weight (aerial portion) after seed soak
Protocol: as §1, §2
Treatment number 4 experienced some negative effects associated with excess watering during the phase when these plants were being germinated. […] Only four replicate plants were able to be planted to individual growing cups. […] Prior to conducting an analysis of individual treatment effects (factorial analysis of variance, LSD means separation test P=0.05, Minitab) on weight Treatment 4 (Compound A 0.05 ppm) was removed from the analysis because it was judged to be an outlier based on poor growth as described above. The paired imidacloprid rate (0.05 ppm, No. 9) was also removed to keep the data balanced.

[3] = test system: Corn (Zea mays 'M2T783') seeds; assay: Test 2: fresh plant weight of corn after seed soak
Protocol: Technical samples of Compound A and imidacloprid were dissolved in water containing 0.125% Tween 20 (V:V). […] The treatment concentrations for Compound A and imidacloprid were 50, 12.5, 3.125, 0.78 and 0.19 ppm. Solutions were prepared in excess and 40 ml was added to 50 ml centrifuge tubes. Corn (Zea mays ‘M2T783’) seeds were inspected for uniform size and undamaged condition and were placed into each centrifuge tube containing specific compound by rate solutions. A treatment of only 0.125% aqueous Tween 20 was used to soak corn seeds and served as the untreated check. Tubes containing seeds and compound solutions were held at room temperature and after […] the seeds were removed from each solution, rinsed and planted into sand in 7.5 cm^2 pots. Tissue paper was placed into the bottom of each pot to keep sand from leaching from the pot. A total of 8 reps of each compound by rate combination were planted for both corn. Eight replicate pots of compound by rate combination were arranged in a completely randomized design on greenhouse carts. This arrangement of treated seeds in pots was placed into the greenhouse and watered over the top as needed. Each cart was equipped with a plastic rack that served to raise the pots up off the cart surface and away from any standing water. The carts were placed in the center of the greenhouse and were rotated 180 degrees daily. After 13 days the carts were moved to the laboratory and the plants were cut off at the soil surface and weighed. Fresh plant weight data were analyzed for homogeneity of variance using Levene's test and further evaluated using one way analysis of variance of individual treatment combinations (compound by rate) and pooled by compound across rates. Means were separated using Tukey's mean separation test with a family-wise error rate of 0.05. All analyses were conducted using Minitab
Corn data were homogeneous based on Levene's test for homgeneity of variance (p=0.116 and p=0.69 respectively). AOV of corn data did indicate a difference (F=3.22, P=0.045, df=2) for pooled compound effects but not for individual treatment effects.

CS(=O)(=NC#N)C(Cl)c1ccc(C(F)(F)F)nc1 (stereo not shown) [Compound A]
Effect on number of aphids vs check ([1]; Test 1, seed soak, compound main effect): significantly more aphids in the check treatment; also recorded: reduced the number of aphids on plants
Aphids (#/plant) Rep 1 ([1]; seed soak 0.005 ppm): 72 #/plant
Aphids (#/plant) Rep 2 ([1]; seed soak 0.005 ppm): 110 #/plant
Aphids (#/plant) Rep 3 ([1]; seed soak 0.005 ppm): 35 #/plant
Aphids (#/plant) Rep 4 ([1]; seed soak 0.005 ppm): 70 #/plant
Aphids (#/plant) Rep 5 ([1]; seed soak 0.005 ppm): 55 #/plant
Aphids (#/plant) Rep 6 ([1]; seed soak 0.005 ppm): 15 #/plant
Aphids (#/plant) Rep 1 ([1]; seed soak 0.05 ppm): 70 #/plant
Aphids (#/plant) Rep 2 ([1]; seed soak 0.05 ppm): 80 #/plant
Aphids (#/plant) Rep 3 ([1]; seed soak 0.05 ppm): 60 #/plant
Aphids (#/plant) Rep 4 ([1]; seed soak 0.05 ppm): 35 #/plant
Aphids (#/plant) Rep 1 ([1]; seed soak 0.5 ppm): 55 #/plant
Aphids (#/plant) Rep 2 ([1]; seed soak 0.5 ppm): 75 #/plant
Aphids (#/plant) Rep 3 ([1]; seed soak 0.5 ppm): 65 #/plant
Aphids (#/plant) Rep 4 ([1]; seed soak 0.5 ppm): 40 #/plant
Aphids (#/plant) Rep 5 ([1]; seed soak 0.5 ppm): 45 #/plant
Aphids (#/plant) Rep 6 ([1]; seed soak 0.5 ppm): 30 #/plant
Aphids (#/plant) Rep 1 ([1]; seed soak 5 ppm): 23 #/plant
Aphids (#/plant) Rep 2 ([1]; seed soak 5 ppm): 25 #/plant
Aphids (#/plant) Rep 3 ([1]; seed soak 5 ppm): 33 #/plant
Aphids (#/plant) Rep 4 ([1]; seed soak 5 ppm): 65 #/plant
Aphids (#/plant) Rep 5 ([1]; seed soak 5 ppm): 25 #/plant
Aphids (#/plant) Rep 6 ([1]; seed soak 5 ppm): 32 #/plant
Aphids (#/plant) Rep 1 ([1]; seed soak 50 ppm): 4 #/plant
Aphids (#/plant) Rep 2 ([1]; seed soak 50 ppm): 2 #/plant
Aphids (#/plant) Rep 3 ([1]; seed soak 50 ppm): 2 #/plant
Aphids (#/plant) Rep 4 ([1]; seed soak 50 ppm): 12 #/plant
Aphids (#/plant) Rep 5 ([1]; seed soak 50 ppm): 18 #/plant
Aphids (#/plant) Rep 6 ([1]; seed soak 50 ppm): 2 #/plant
Effect on plant weight vs check ([2]; Test 1, seed soak): significant increase in plant weight
Plant Weight (g) Rep 1 ([2]; seed soak 0.005 ppm): 2.36 g
Plant Weight (g) Rep 2 ([2]; seed soak 0.005 ppm): 1.76 g
Plant Weight (g) Rep 3 ([2]; seed soak 0.005 ppm): 2.09 g
Plant Weight (g) Rep 4 ([2]; seed soak 0.005 ppm): 2.22 g
Plant Weight (g) Rep 5 ([2]; seed soak 0.005 ppm): 1.92 g
Plant Weight (g) Rep 6 ([2]; seed soak 0.005 ppm): 1.93 g
Plant Weight (g) Rep 1 ([2]; seed soak 0.05 ppm): 0.73 g
Plant Weight (g) Rep 2 ([2]; seed soak 0.05 ppm): 1.35 g
Plant Weight (g) Rep 3 ([2]; seed soak 0.05 ppm): 1.2 g
Plant Weight (g) Rep 4 ([2]; seed soak 0.05 ppm): 1.1 g
Plant Weight (g) Rep 1 ([2]; seed soak 0.5 ppm): 1.84 g
Plant Weight (g) Rep 2 ([2]; seed soak 0.5 ppm): 1.88 g
Plant Weight (g) Rep 3 ([2]; seed soak 0.5 ppm): 2.04 g
Plant Weight (g) Rep 4 ([2]; seed soak 0.5 ppm): 2.13 g
Plant Weight (g) Rep 5 ([2]; seed soak 0.5 ppm): 1.96 g
Plant Weight (g) Rep 6 ([2]; seed soak 0.5 ppm): 1.8 g
Plant Weight (g) Rep 1 ([2]; seed soak 5 ppm): 2.23 g
Plant Weight (g) Rep 2 ([2]; seed soak 5 ppm): 2.1 g
Plant Weight (g) Rep 3 ([2]; seed soak 5 ppm): 1.79 g
Plant Weight (g) Rep 4 ([2]; seed soak 5 ppm): 2.53 g
Plant Weight (g) Rep 5 ([2]; seed soak 5 ppm): 1.87 g
Plant Weight (g) Rep 6 ([2]; seed soak 5 ppm): 1.9 g
Plant Weight (g) Rep 1 ([2]; seed soak 50 ppm): 2.29 g
Plant Weight (g) Rep 2 ([2]; seed soak 50 ppm): 2.22 g
Plant Weight (g) Rep 3 ([2]; seed soak 50 ppm): 2.12 g
Plant Weight (g) Rep 4 ([2]; seed soak 50 ppm): 1.87 g
Plant Weight (g) Rep 5 ([2]; seed soak 50 ppm): 1.87 g
Plant Weight (g) Rep 6 ([2]; seed soak 50 ppm): 2.14 g
Plant Weight % increase ([3]; corn seedling weight vs untreated Tween 20 water check, pooled across rates): 38.9%
Plant Weight (g) Mean ([3]; corn, seed soak, pooled across rates 50-0.19 ppm, fresh weight after 13 days): 3.162 g
Tukey's pair-wise comparison of corn plant weight with untreated Tween 20 water check ([3]; pooled compound effects, family-wise error rate 0.05): significantly different; also recorded: significantly increased plant weight
